In patent US20240252469A1, “Carnosine Analogs for Use in the Treatment of Metabolic Disorders” (priority 2021, published 2024):

Columns and labels:
[1] = system: C2C12 skeletal muscle cells; assay: Toxicity testing of carnosine esters (Calcein AM cell viability); assay type: cell-based; conditions: 100 μM ester in GLT RPMI-1640 medium, 5 days culture, versus control medium
Method: C2C12 muscle cell myotubes were cultured for 5 days in the following four culture media: a control RPMI-1640 medium; glucolipotoxic (GLT) RPMI-1640 medium (28 mM glucose, 200 μM palmitic acid and 200 μM oleic acid) supplemented with 100 μM of L-carnosine methyl ester; GLT RPMI-1640 medium supplemented with 100 μM of L-carnosine ethyl ester; and GLT RPMI-1640 medium supplemented with 100 μM of L-carnosine iso-propyl ester. Following culture, media were aspirated and cells washed 3 times in Krebs-Ringer buffer (KRB). A final concentration of 5 μM Calcein AM Cell Viability Dye (ThermoFischer) in KRB was loaded for 1 h before washing again with KRB. Cell viability was measured via fluorescence, with excitation and emission at 490 nm and 520 nm, respectively.

[2] = system: C2C12 skeletal muscle cells; assay: Reactive species scavenging ability (DCFDA fluorescence); assay type: cell-based; conditions: 100 μM ester for 1 h after 5 days culture in GLT RPMI-1640 media
Method: C2C12 muscle cell myotubes were cultured for 5 days in standard RPMI-1640 tissue culture media or GLT RPMI-1640 media. Corresponding media were then replaced and supplemented independently with 100 μM of a carnosine ester (L-carnosine methyl ester, L-carnosine ethyl ester, and L-carnosine iso-propyl ester investigated) for 1 h. Non-supplemented standard and GLT RPMI-1640 media were also retained as controls. Cells were thereafter washed 3 times in KRB and 20 μM 2′,7′-dichlorofluorescein diacetate (DCFDA), a cell permeant fluorogenic dye that measures hydroxyl, peroxyl and other ROS, was loaded for 1 h. Reactive species detection was measured via fluorescence, with excitation at 495 nm and emission at 530 nm.

INS-1 pancreatic β-cells = assay: Insulin secretion from INS-1 pancreatic β-cells (ELISA, normalised to cellular protein); assay type: cell-based; conditions: 100 μM ester in GLT RPMI-1640 medium for 5 days; 2 h secretagogue cocktail stimulation
Method: INS-1 pancreatic B-cells were cultured for 5 days in standard RPMI-1640 tissue culture media or GLT RPMI-1640 media. The media were either used without further supplementation (used as controls) or were independently supplemented with either 10 mM of L-carnosine or with 100 μM of a carnosine ester (L-carnosine methyl ester, L-carnosine ethyl ester, and L-carnosine iso-propyl ester investigated). INS-1 cells were then treated with KRB or KRB supplemented with secretagogue cocktail (13.5 mM glucose, 1 μM phorbol 12-myristate 13-acetate, 1 mM isobutyl-methylxanthine, 1 mM tolbutamide, 10 mM leucine, 10 mM glutamine) as a stimulant of insulin secretion for 2 h. Insulin secretion was determined by ELISA assay, with data normalised to cellular protein content.

[3] = system: High fat-fed spontaneously diabetic mice; assay: Glucose tolerance test in an in vivo model of type-2 diabetes; conditions: 45 mg/kg body weight/day in diet
Method: High fat-fed spontaneously diabetic mice were used as an animal model of type-2 diabetes. A glucose tolerance test was performed on three sets of mice, wherein the mice were initially fasted for 6 h. A […] glucose solution was then administered to the three sets of mice in their drinking water and their blood glucose concentrations (mmol/L) monitored over a period of 2 h. The following three sets of mice were used in the study: • Non-diabetic, non-high fat-fed mice. • Spontaneously diabetic high fat-fed mice. • Spontaneously diabetic high fat-fed mice whose diet also included 45 mg/kg body weight/day of L-carnosine iso-propyl ester.
Spontaneously diabetic high fat-fed mice were defined as mice which had been fed the following high fat diet from Research Diets: (60% fat; D12492). Non-diabetic, non-high fat-fed mice were used as a control and were fed the following low fat diet from Research Diets: (10% fat, D12450B). The body weights of the mice on the two different diets were measured throughout.

## CC(C)OC(=O)[C@H](Cc1cnc[nH]1)NC(=O)CCN [L-carnosine iso-propyl ester]
[1]
  cell viability: non-toxic
[2]
  intracellular reactive species (GLT-associated reactive species levels): return to control values
INS-1 pancreatic β-cells
  insulin secretion in cells exposed to glucolipotoxicity (GLT): reverse glucolipotoxic inhibition of insulin secretion
[3]; high fat-fed mice
  toxic effects on the animals: no toxic effects
[3]; spontaneously diabetic high fat-fed mice, 6 h fast
  glucose tolerance: significantly improved glucose tolerance
[3]; versus high fat-fed mice only administered the high fat diet
  blood glucose concentrations at the end of the study (2 h): significantly lower

## COC(=O)[C@H](Cc1cnc[nH]1)NC(=O)CCN [L-carnosine methyl ester]
[1]
  cell viability: non-toxic
[2]
  intracellular reactive species (GLT-associated reactive species levels): return to control values
INS-1 pancreatic β-cells
  insulin secretion in cells exposed to glucolipotoxicity (GLT): reverse glucolipotoxic inhibition of insulin secretion

## CCOC(=O)[C@H](Cc1cnc[nH]1)NC(=O)CCN [L-carnosine ethyl ester]
[1]
  cell viability: non-toxic
[2]
  intracellular reactive species (GLT-associated reactive species levels): return to control values
INS-1 pancreatic β-cells
  insulin secretion in cells exposed to glucolipotoxicity (GLT): reverse glucolipotoxic inhibition of insulin secretion
